Entries after “also recorded” stand apart in the source; their conditions may differ.
What was measured:
[1] = test system: human AMPDA; conditions: cited from earlier work; for Ki: human AMPDA, read-out: AMPDA K(i)
[2] = target: T1, adenosine deaminase (Homo sapiens, UniProt P00813); conditions: cited from earlier work
T1 sequence (P00813 1-363): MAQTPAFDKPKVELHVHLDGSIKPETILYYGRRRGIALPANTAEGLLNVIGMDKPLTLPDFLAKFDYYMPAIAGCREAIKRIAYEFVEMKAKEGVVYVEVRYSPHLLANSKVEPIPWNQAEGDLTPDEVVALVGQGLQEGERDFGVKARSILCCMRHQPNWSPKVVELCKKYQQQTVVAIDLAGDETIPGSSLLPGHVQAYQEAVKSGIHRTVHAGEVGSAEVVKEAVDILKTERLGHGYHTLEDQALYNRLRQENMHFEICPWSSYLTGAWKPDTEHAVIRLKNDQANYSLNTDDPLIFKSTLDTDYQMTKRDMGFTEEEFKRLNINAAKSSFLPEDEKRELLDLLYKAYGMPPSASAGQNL

[3] = target: T2, AMPD2 (Mus musculus, UniProt Q9DBT5); test: AMPD2 activity in the liver after oral pan AMPD inhibitor; format: in vivo; conditions: wild type mice, gavage 25 mg/kg twice daily (50 mg/kg/d)
T2 construct: from tissue
T2 sequence (Q9DBT5 1-824): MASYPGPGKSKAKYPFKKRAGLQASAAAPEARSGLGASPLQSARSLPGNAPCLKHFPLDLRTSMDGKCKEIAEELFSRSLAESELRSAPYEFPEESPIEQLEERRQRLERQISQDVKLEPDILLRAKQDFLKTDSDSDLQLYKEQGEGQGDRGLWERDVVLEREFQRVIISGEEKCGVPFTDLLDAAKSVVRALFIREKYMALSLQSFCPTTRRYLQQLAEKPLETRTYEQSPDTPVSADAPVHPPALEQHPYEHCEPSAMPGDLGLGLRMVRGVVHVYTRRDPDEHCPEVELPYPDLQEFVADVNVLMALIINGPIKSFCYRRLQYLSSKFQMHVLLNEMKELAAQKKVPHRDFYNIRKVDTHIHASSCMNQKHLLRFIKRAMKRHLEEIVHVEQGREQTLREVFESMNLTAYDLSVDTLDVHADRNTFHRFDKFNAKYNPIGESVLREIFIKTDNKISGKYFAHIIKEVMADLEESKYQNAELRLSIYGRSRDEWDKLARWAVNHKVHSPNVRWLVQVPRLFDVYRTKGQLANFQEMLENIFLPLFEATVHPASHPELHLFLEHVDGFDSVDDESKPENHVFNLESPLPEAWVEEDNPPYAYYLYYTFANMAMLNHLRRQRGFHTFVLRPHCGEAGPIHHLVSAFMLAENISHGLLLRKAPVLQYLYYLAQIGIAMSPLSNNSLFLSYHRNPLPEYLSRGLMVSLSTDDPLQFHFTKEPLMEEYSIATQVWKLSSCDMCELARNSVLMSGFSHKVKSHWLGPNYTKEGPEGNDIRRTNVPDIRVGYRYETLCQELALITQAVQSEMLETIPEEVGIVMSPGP
Protocol: (§1) Mice were administered the racemate of the active compound 1 (FIG. 2 in the paper by Admyre et al Chem Biol 2014; 21:1488-1496) by gavage at a dose of 25 mg/kg twice daily beginning two days before administering fructose (15%) in the drinking water.
(§2) The benefit from blocking AMPD2 on craving is not limited to mice genetically lacking AMPD2. Recently an inhibitor for AMPD2 was published, and we made a racemate of the active compound 1 (FIG. 2 in the paper by Admyre et al Chem Biol 2014; 21:1488-1496).

[4] = test system: wild type mice; test: Fructose craving: intake of fructose (15%) drinking water; format: in vivo
Protocol: as §1, §2

Row | Molecule | enhancement in AMPDA inhibitory potency [1] | potency (K(i)) lower than the Km for the substrate AMP [1] | Ki [1] [µM] | enzyme specificity [2] | AMPD2 activity in the liver [3] | craving for fructose ([4]; gavage 25 mg/kg twice daily (50 mg/kg/d), fructose (15%) water) | intake of fructose-containing water ([4]; gavage 25 mg/kg twice daily from two days before fructose (15%) in drinking water)
1 | 3-[2-(3-carboxy-4-bromo-5,6,7,8-tetrahydronaphthyl)ethyl]-3,6,7,8-tetrahydroimidazo[4,5-d][1,3]diazepin-8-ol [Compound 24b] | 10- to 250 fold | 10(5) fold | 0.002 | without loss in the enzyme specificity | – | – | –
2 | CC(NCc1ccc(-c2ccc(C(=O)O)cn2)cc1)c1cccc2ccncc12 (racemic) [racemate of the active compound 1, 6-(4-((1-(Isoquinolin-8-yl)ethylamino)methyl)phenyl)nicotinic acid] | – | – | – | – | significantly block AMPD2 activity in the liver; also recorded: inhibition of AMPD2 activity in the liver | completely blocked the craving for fructose | significantly reduce the intake of fructose-containing water
3 | CCc1cc(CCn2cnc3c2N=CNCC3O)cc(C(=O)O)c1 (centres unmarked) [43 g, 3-[2-(3-carboxy-5-ethylphenyl)ethyl]-3,6,7,8-tetrahydroimidazo[4,5-d][1,3]diazepin-8-ol] | – | – | 0.06 | – | – | – | –

Source: patent US10912770B2, “Targeting AMP deaminase 2 for ameliorating craving for sugar and other substances” (The Regents of the University of Colorado, a body coporate, priority 2016, dated 2021)
